Experimental data reported in patent publication EP2975030B1, “DIHYDROPYRIDAZINE-3,5-DIONE DERIVATIVE” (Chugai Seiyaku Kabushiki Kaisha, priority 2013, dated 2014).

Tested on: rat small-intestinal brush border membrane vesicles
Assay: Inhibitory effect on 33PO4 uptake into rat small-intestinal brush border membrane vesicles (rapid filtration method)
Assay type: biochemical, Wistar female rat
Details: 1 µM test compound; 33PO4 uptake into rat small-intestinal BBMVs, 60 seconds
Procedure: The ^33PO4 transport activity of the small-intestinal BBMVs was determined by the rapid filtration method. […] Then, ice-cold buffer C (110 mM NaCl, 1 mM KH2PO4, and 10 mM HEPES (pH 7.5)) was added to each reaction mixture, which was immediately suction-filtered through a Millipore filter. The filter was washed with buffer C, and each sample was then dissolved in a liquid scintillator. The amount of ^33PO4 uptake into BBMVs was measured using a liquid scintillation counter. […]

C[C@]12CCCN1N(Cc1cccc(F)c1F)C(=O)C(C(=O)Nc1ccc(Cl)cc1-c1ccc(C(F)(F)F)nc1)=C2O [Example 86]
Rate of uptake inhibition (%) (1 µM): 83%

CN(C)S(=O)(=O)c1ccc(-c2nc(C(F)(F)F)ccc2NC(=O)C2=C(O)[C@@]3(C)CCCN3N(Cc3cccc(F)c3F)C2=O)cc1 [Example 87]
Rate of uptake inhibition (%) (1 µM): 84%

C[C@]12CCCN1N(Cc1cccc(F)c1F)C(=O)C(C(=O)Nc1ccc(C(F)(F)F)cc1)=C2O [Example 89]
Rate of uptake inhibition (%) (1 µM): 67%

C[C@]12CCCN1N(Cc1cccc(F)c1F)C(=O)C(C(=O)Nc1ccc(C(F)(F)F)cc1-c1ccc(C(F)(F)F)nc1)=C2O [Example 90]
Rate of uptake inhibition (%) (1 µM): 91%

C[C@]12CCCN1N(Cc1cccc(F)c1F)C(=O)C(C(=O)Nc1ccc(C(F)(F)F)cc1-c1cncc(C(F)(F)F)c1)=C2O [Example 91]
Rate of uptake inhibition (%) (1 µM): 87%

COCCOc1cc(NC(=O)C2=C(O)[C@@]3(C)CCCN3N(Cc3cccc(F)c3F)C2=O)c(-c2cccc(OC)c2OC)cc1C(F)(F)F [Example 92]
Rate of uptake inhibition (%) (1 µM): 81%

COc1cccc(-c2cc(C(F)(F)F)ccc2NC(=O)C2=C(O)[C@@]3(C)CCCN3N(Cc3cccc(F)c3F)C2=O)n1 [Example 93]
Rate of uptake inhibition (%) (1 µM): 56%

C[C@]12CCCN1N(Cc1cccc(F)c1F)C(=O)C(C(=O)Nc1ccc(C(F)(F)F)cc1-c1cnc(C#N)c([N+](=O)[O-])c1)=C2O [Example 99, (4aR)-N-[2-(6-Cyano-5-nitropyridin-3-yl)-4-(trifluoromethyl)phenyl]-1-[(2,3-difluorophenyl)methyl]-4-hydroxy-4a-methyl-2-oxo-6,7-dihydro-5H-pyrrolo[1,2-b]pyridazine-3-carboxamide]
Rate of uptake inhibition (%) (1 µM): 82%

C[C@]12CCCN1N(Cc1cccc(F)c1F)C(=O)C(C(=O)Nc1ccc(C(F)(F)F)cc1-c1cc(C#N)ncn1)=C2O [Example 100]
Rate of uptake inhibition (%) (1 µM): 69%

Cc1cc(-c2cc(C(F)(F)F)ccc2NC(=O)C2=C(O)[C@@]3(C)CCCN3N(Cc3cccc(F)c3F)C2=O)cnc1C#N [Example 101]
Rate of uptake inhibition (%) (1 µM): 57%

C[C@]12CCCN1N(Cc1ccc(OCCN3CCOCC3)c(F)c1F)C(=O)C(C(=O)Nc1ccc(Cl)cc1-c1ccc(C(F)(F)F)nc1)=C2O [Example 102]
Rate of uptake inhibition (%) (1 µM): 65%

CSc1ccc(-c2cc(C(F)(F)F)ccc2NC(=O)C2=C(O)[C@@]3(C)CCCN3N(Cc3ccc(OCCN4CCOCC4)c(F)c3F)C2=O)cn1 [Example 103]
Rate of uptake inhibition (%) (1 µM): 78%

CSc1ncc(-c2cc(C(F)(F)F)ccc2NC(=O)C2=C(O)[C@@]3(C)CCCN3N(Cc3ccc(OCCN4CCOCC4)c(F)c3F)C2=O)cn1 [Example 104]
Rate of uptake inhibition (%) (1 µM): 73%

CSc1ccc(-c2nc(C(F)(F)F)ccc2NC(=O)C2=C(O)[C@@]3(C)CCCN3N(Cc3cccc(F)c3F)C2=O)cn1 [Example 105]
Rate of uptake inhibition (%) (1 µM): 72%

C[C@]12CCCN1N(Cc1ccc(OCCN3CCOCC3)c(F)c1F)C(=O)C(C(=O)Nc1ccc(C(F)(F)F)nc1-c1cncc(C(F)(F)F)c1)=C2O [Example 106]
Rate of uptake inhibition (%) (1 µM): 79%

C[C@@]12CCCN1N(Cc1ccc(OCCN3CCOCC3)c(F)c1F)C(=O)C(C(=O)Nc1ccc(Cl)cc1-c1cc(C(F)(F)F)ncn1)=C2O.Cl [Example 107]
Rate of uptake inhibition (%) (1 µM): 54%

C[C@@]12CCCN1N(Cc1ccc(OCCN3CCOCC3)c(F)c1F)C(=O)C(C(=O)Nc1ccc(C(F)(F)F)cc1-c1cc(C(F)(F)F)ncn1)=C2O.Cl [Example 108]
Rate of uptake inhibition (%) (1 µM): 54%

Cc1ncc(-c2cc(C(F)(F)F)ccc2NC(=O)C2=C(O)[C@@]3(C)CCCN3N(Cc3cccc(F)c3F)C2=O)cc1C#N [Example 109, (4aR)-N-[2-(5-Cyano-6-methylpyridin-3-yl)-4-(trifluoromethyl)phenyl]-1-[(2,3-difluorophenyl)methyl]-4-hydroxy-4a-methyl-2-oxo-6,7-dihydro-5H-pyrrolo[1,2-b]pyridazine-3-carboxamide]
Rate of uptake inhibition (%) (1 µM): 52%

C[C@]12CCCN1N(Cc1cccc(F)c1F)C(=O)C(C(=O)Nc1ccc(C(F)(F)F)cc1-c1cnc(N3CC4(COC4)C3)c(C#N)c1)=C2O [Example 111, (4aR)-N-[2-[5-Cyano-6-(2-oxa-6-azaspiro[3.3]heptan-6-yl)pyridin-3-yl]-4-(trifluoromethyl)phenyl]-1-[(2,3-difluorophenyl)methyl]-4-hydroxy-4a-methyl-2-oxo-6,7-dihydro-5H-pvrrolo[1,2-b]pyridazine-3-carboxamide]
Rate of uptake inhibition (%) (1 µM): 56%

COC(=O)CN(C)c1ncc(-c2cc(C(F)(F)F)ccc2NC(=O)C2=C(O)[C@@]3(C)CCCN3N(Cc3cccc(F)c3F)C2=O)cc1C#N [Example 112]
Rate of uptake inhibition (%) (1 µM): 43%

CSc1cc(-c2cc(C(F)(F)F)ccc2NC(=O)C2=C(O)[C@@]3(C)CCCN3N(Cc3cccc(F)c3F)C2=O)cnc1C#N [Example 113]
Rate of uptake inhibition (%) (1 µM): 84%

COc1cc(-c2cc(C(F)(F)F)ccc2NC(=O)C2=C(O)[C@@]3(C)CCCN3N(Cc3cccc(F)c3F)C2=O)cnc1C#N [Example 114, (4aR)-N-[2-(6-Cyano-5-methoxypyridin-3-yl)-4-(trifluoromethyl)phenyl]-1-[(2,3-difluorophenyl)methyl]-4-hydroxy-4a-methyl-2-oxo-6,7-dihydro-5H-pyrrolo[1,2-b]pyridazine-3-carboxamide]
Rate of uptake inhibition (%) (1 µM): 86%

CSc1ccc(-c2cc(C(F)(F)F)ccc2NC(=O)C2=C(O)[C@@]3(C)CCCN3N(Cc3ccc(CCCCCCC(=O)O)c(F)c3F)C2=O)cn1 [Example 115, 7-[4-[[(4aR)-4-Hydroxy-4a-methyl-3-[[2-(6-methylsulfanylpyridin-3-yl)-4-(trifluoromethyl)phenyl]carbamoyl]-2-oxo-6,7-dihydro-5H-pyrrolo[1,2-b]pyridazin-1-yl]methyl]-2,3-difluorophenyl]heptanoate]
Rate of uptake inhibition (%) (1 µM): 85%

C[C@]12CCCN1N(Cc1ccc(CCCCCCC(=O)O)c(F)c1F)C(=O)C(C(=O)Nc1ccc(Cl)cc1-c1ccc(C(F)(F)F)nc1)=C2O [Example 116, 7-[4-[[(4aR)-3-[[4-Chloro-2-[6-(trifluoromethyl)pyridin-3-yl]phenyl]carbamoyl]-4-hydroxy-4a-methyl-2-oxo-6,7-dihydro-5H-pyrrolo[1,2-b]pyridazin-1-yl]methyl]-2,3-difluorophenyl]heptanoate]
Rate of uptake inhibition (%) (1 µM): 72%

CSc1ccc(-c2cc(C(F)(F)F)ccc2NC(=O)C2=C(O)[C@@]3(C)CCCN3N(Cc3ccc(C#CCCCCC(=O)O)c(F)c3F)C2=O)cn1 [Example 117, 7-[4-[[(4aR)-4-Hydroxy-4a-methyl-3-[[2-(6-methylsulfanylpyridin-3-yl)-4-(trifluoromethyl)phenyl]carbamoyl]-2-oxo-6,7-dihydro-5H-pyrrolo[1,2-b]pyridazin-1-yl]methyl]-2,3-difluorophenyl]hept-6-ynoate]
Rate of uptake inhibition (%) (1 µM): 78%

CSc1ncc(-c2cc(C(F)(F)F)ccc2NC(=O)C2=C(O)[C@@]3(C)CCCN3N(Cc3ccc(C#CCCCCC(=O)O)c(F)c3F)C2=O)cn1 [Example 118, 7-[4-[[(4aR)-4-Hydroxy-4a-methyl-3-[[2-(2-methylsulfanylpyrimidin-5-yl)-4-(trifluoromethyl)phenyl]carbamoyl)-2-oxo-6,7-dihydro-5H-pyrrolo[1,2-b]pyridazin-1-yl]methyl]-2,3-difluorophenyl]hept-6-ynoate]
Rate of uptake inhibition (%) (1 µM): 81%

C[C@]12CCCN1N(Cc1ccc(C#CCCCCC(=O)O)c(F)c1F)C(=O)C(C(=O)Nc1ccc(C(F)(F)F)cc1-c1cncc(C(F)(F)F)c1)=C2O [Example 119, 7-[4-[[(4aR)4-Hydroxy-4a-methyl-2-oxo-3-[[4-(trifluoromethyl)-2-[5-(trifluoromethyl)pyridin-3-yl]phenyl]carbamoyl]-6,7-dihydro-5H-pyrrolo[1,2-b]pyridazin-1-yl]methyl)-2,3-difluorophenyl]hept-6-ynoate]
Rate of uptake inhibition (%) (1 µM): 71%

CSc1ccc(-c2cc(C(F)(F)F)ccc2NC(=O)C2=C(O)[C@@]3(C)CCCN3N(Cc3ccc(OCCCCOC[C@H](O)CO)c(F)c3F)C2=O)cn1 [Example 120]
Rate of uptake inhibition (%) (1 µM): 66%

C[C@]12CCCN1N(Cc1ccc(OCCCCOC[C@H](O)CO)c(F)c1F)C(=O)C(C(=O)Nc1ccc(Cl)cc1-c1ccc(C(F)(F)F)nc1)=C2O [Example 121, (4aR)-N-[4-Chloro-2-[6-(trifluoromethyl)pyridin-3-yl]phenyl]-1-[[4-[4-[(2R)-2,3-dihydroxypropoxy]butoxy]-2,3-difluorophenyl]methy]-4-hydroxy-4a-methyl-2-oxo-6,7-dihydro-5H-pyrrolo[1,2-b]pyridazine-3-carboxamide]
Rate of uptake inhibition (%) (1 µM): 72%

C[C@]12CCCN1N(Cc1cccc(F)c1F)C(=O)C(C(=O)Nc1ccc(Br)cc1-c1ccc(Cl)nc1)=C2O [Example 122, (4aR)-N-[4-Bromo-2-(6-chloropyridin-3-yl)phenyl]-1-[(2,3-difluorophenyl)methyl]-4-hydroxy-4a-methyl-2-oxo-6,7-dihydro-5H-pyrrolo[1,2-b]pyridazine-3-carboxamide]
Rate of uptake inhibition (%) (1 µM): 82%

COc1cccc(-c2cc(C(F)(F)F)ccc2NC(=O)C2=C(O)[C@@]3(C)CCCN3N(Cc3ccc(C#CCOCCCCO)c(F)c3F)C2=O)c1OC [Example 123, (4aR)-1-[[2,3-Difluoro-4-[3-(4-hydroxybutoxy)prop-1-ynil]phenyl]methyl]-N-[2-(2.3-dimethoxyphenyl)-4-(trifluoromethyl)phenyl]-4-hydroxy-4a-methyl-2-oxo-6,7-dihydro-5H-pyrrolo[1,2-b]pyridazine-3-carboxamide]
Rate of uptake inhibition (%) (1 µM): 87%

C[C@]12CCCN1N(Cc1c(F)cc(C#CCCCCCOC[C@H](O)[C@@H](O)CO)cc1F)C(=O)C(C(=O)Nc1ccc(C(F)(F)F)cc1-c1ccc(C(F)(F)F)nc1)=C2O [Example 124]
Rate of uptake inhibition (%) (1 µM): 81%
